# Like-named read-outs stand apart in the source and are kept apart here.
# Key:
# [1] = system: HeLa cells (cervix adenocarcinoma); test: Alamar Blue cytotoxicity assay, HeLa; format: cell-based; conditions: Homo sapiens; for inhibition at 300 µM: bracketed values, read-out: proliferation inhibition expressed as a percentage at highest concentration used; for IC50: read-out: IC50 based on survival of cells
# Method: (§1) HeLa, U87, BICR18, EUFA30 cell lines were cultured in DMEM medium (Life Technology) supplemented with 10% fetal bovine serum (Life Technology) and 0.1% antibiotics, penicillin and streptomycin (Life Technology). Cells were grown in a humidified atmosphere of CO2/air (5/95%) at 37 °C.
# (§2) Exponentially growing cells were seeded onto a 96-well plate at the density of 2 × 10^3 cells/well, cultured for 18 h, and treated with newly synthesized derivatives at concentrations 1–300 µM, or with DMSO as a control, for 24 or 48 h. Alamar Blue (Invitrogen) was added accordingly to manufacturer protocol. After 4 h, light emission at 590 nm was measured with excitation at 560 nm using a scanning multiwell spectrophotometer (DTX 880, Beckman Coulter). The experiments were carried out at least three times with three replicates for each inhibitor concentration. After background subtraction, inhibition rate, IC50 was calculated as the concentration of the component inhibiting cell growth by 50%. All the calculations were performed using Origin 9.0 software.
# [2] = system: U87 cells (human primary glioblastoma); test: Alamar Blue cytotoxicity assay, U87; format: cell-based; conditions: U-87 MG; for inhibition at 300 µM: bracketed values, read-out: proliferation inhibition expressed as a percentage at highest concentration used; for IC50: read-out: IC50 based on survival of cells
# Method: as §1, §2
# [3] = system: EUFA30 cells (non-cancerous human fibroblasts); test: Alamar Blue cytotoxicity assay, EUFA30; format: cell-based; conditions: Fibroblast; for inhibition at 300 µM: bracketed values, read-out: proliferation inhibition expressed as a percentage at highest concentration used; for IC50: read-out: IC50 based on survival of cells
# Method: as §1, §2
# [4] = system: BICR18 cells (laryngeal squamous cell carcinoma); test: Alamar Blue cytotoxicity assay, BICR18; format: cell-based; conditions: for inhibition at 300 µM: bracketed values, read-out: proliferation inhibition expressed as a percentage at highest concentration used; for IC50: read-out: IC50 based on survival of cells
# Method: as §1, §2
# [5] = system: EUFA30, HeLa, BICR18, U87 cells; test: Alamar Blue cytotoxicity assay, statements over all tested cell lines; format: cell-based; conditions: Homo sapiens, concentrations 1-300 µM, group range = lowest to highest value, read-out: IC50 across the tested cell lines
# Method: as §1, §2
# HeLa cells = test: Annexin V-FITC / propidium iodide flow cytometry, HeLa; format: cell-based; conditions: 24 h; for number of necrotic cells: 200 µM, non-treated control 5.4%
# Method: as §1
# (§3) The Annexin V-FITC apoptosis detection kit (BD Biosciences) was used to detect apoptosis by flow cytometry. Cells were seeded at Petri dishes, cultured for 18 h with tested agents applied for 24 h. DMSO was added as the non-treated control and camptothecin (CPT) as the positive control. Subsequently, cells were washed with PBS, resuspended in binding buffer at a concentration of 2 × 10^6 cells/mL, and anti-Annexin V FITC-conjugated antibody and propidium iodide were added to 100 µL aliquots. The mixtures were incubated for 15 min at room temperature, supplemented with binding buffer to 500 µL and processed by BD FACSCalibur (BD Biosciences). Data were analyzed in Flowing Software version 2.5.1 (Flowing Software, http://www.uskonaskel.fi/flowingsoftware).
# EUFA30 cells = test: Annexin V-FITC / propidium iodide flow cytometry, EUFA30; format: cell-based, human; conditions: 24 h
# Method: as §1, §3
# [6] = EUFA30, 200 µM, non-treated control 0.3%
# [7] = EUFA30, 200 µM, non-treated control 0.4%
# [8] = EUFA30, 200 µM, non-treated control 5.7%
# [9] = EUFA30, positive control, 10 μM
SMILES,inhibition at 300 µM ([1]; 24 h) [%],inhibition at 300 µM ([1]; 48 h) [%],"inhibition at 300 µM ([2]; U87, 24 h) [%]",melting point,"inhibition at 300 µM ([3]; EUFA30, 24 h) [%]","inhibition at 300 µM ([3]; EUFA30, 48 h) [%]","inhibition at 300 µM ([4]; BICR18, 24 h) [%]","inhibition at 300 µM ([2]; U87, 48 h) [%]","inhibition at 300 µM ([4]; BICR18, 48 h) [%]",further results
"CN1C(=O)c2ccccc2C(=O)Nc2ccccc21 [Compound 3e, 5-methyl-5,12-dihydrodibenzo[b,f][1,4]diazocine-6,11-dione]",19.8,5.7,34.1,206 to 207 °C,31.6,17.5,22.7,,,
"O=C1CCC(=O)Nc2ccccc2N1 [Compound 6, 1,3,4,6-tetrahydrobenzo[b][1,4]diazocine-2,5-dione]",21.5,4.3,19.6,244 to 245 °C,29.4,14,11.3,,,
"CN1C(=O)c2ccccc2C(=O)Nc2cc(Cl)c(Cl)cc21 [Compound 3f, 2,3-dichloro-5-methyl-5,12-dihydrodibenzo[b,f][1,4]diazocine-6,11-dione]",,7.8,,,,19.1,47.5,29.9,7.6,"IC50 ([1]; 24 h of treatment): 298 ± 11 µM; IC50 [5]: 93.7 to 323 µM; number of necrotic cells (HeLa cells): 15.3%; dead cell fraction: early apoptosis (EUFA30 cells; [6]): 6.9%; dead cell fraction: late apoptosis (EUFA30 cells; [7]): 1.6%; dead cell fraction: necrosis (EUFA30 cells; [8]): 4.3%; IC50 ([2]; U87, 24 h of treatment): 207 ± 23.6 µM; IC50 ([3]; EUFA30, 24 h of treatment): 320 ± 36 µM"
"CN1C(=O)c2ccccc2C(=O)N(C)c2ccccc21 [Compound 3l, 5,12-dimethyl-5,12-dihydrodibenzo[b,f][1,4]diazocine-6,11-dione]",29.5,2.8,39,265 to 266 °C,38.1,19.5,22.1,,,
"O=C1Nc2ccc([N+](=O)[O-])cc2NC(=O)c2ccccc21 [Compound 3b, 2-nitro-5,12-dihydrodibenzo[b,f][1,4]diazocine-6,11-dione]",33.2,4.7,10.4,230 °C (dec.),31,18.6,2.2,,,
"O=C(c1ccccc1)c1ccc2c(c1)NC(=O)c1ccccc1C(=O)N2 [Compound 3c, 2-benzoyl-5,12-dihydrodibenzo[b,f][1, 4]diazocine-6,11-dione]",14.5,,15,156 to 157 °C,28.8,,10,,,
"Nc1ccccc1N1C(=O)c2ccccc2C1=O [Compound 10, 2-(2-aminophenyl)isoindoline-1,3-dione]",4.9,,22.9,195 to 196 °C,25.6,,11.4,,,
"CC[C@@]1(O)C(=O)OCc2c1cc1n(c2=O)Cc2cc3ccccc3nc2-1 [camptothecin, reference compound]",,,,,,,,,,"necrotic cells (HeLa cells; positive control, 10 μM): 31.2%; dead cell fraction: early apoptosis (EUFA30 cells; [9]): 4.1%; dead cell fraction: late apoptosis (EUFA30 cells; [9]): 6.8%; dead cell fraction: necrosis (EUFA30 cells; [9]): 18.7%"
"CN1C(=O)c2cc(Cl)c(Cl)cc2C(=O)Nc2ccccc21 [Compound 3g, 8,9-dichloro-5-methyl-5,12-dihydrodibenzo[b,f][1,4]diazocine-6,11-dione]",43.1,5.3,,,41.6,29.5,,2.4,12.3,"IC50 [5]: 93.7 to 323 µM; number of necrotic cells (HeLa cells): 8.8%; dead cell fraction: early apoptosis (EUFA30 cells; [6]): 5.0%; dead cell fraction: late apoptosis (EUFA30 cells; [7]): 1.5%; dead cell fraction: necrosis (EUFA30 cells; [8]): 6.8%; IC50 ([2]; U87, 24 h of treatment): 323 ± 23.9 µM; IC50 ([4]; BICR18, 24 h of treatment): 266 ± 27.6 µM"
"O=C1Nc2ccccc2NC(=O)c2cc([N+](=O)[O-])ccc21 [Compound 3d, 8-nitro-5,12-dihydrodibenzo[b,f][1,4]diazocine-6,11-dione]",23.4,3.9,27.5,243 to 244 °C,9.2,4.2,25.1,,2.5,
"O=C1Nc2ccccc2NC(=O)c2ccccc21 [Compound 3a, 5,12-dihydrodibenzo[b,f][1,4]diazocine-6,11-dione]",20.7,1.5,17.6,286 to 287 °C,21.2,9,7.1,,,
"CN1C(=O)c2c(Cl)c(Cl)c(Cl)c(Cl)c2C(=O)Nc2ccccc21 [Compound 3h, 7,8,9,10-tetrachloro-5-methyl-5,12-dihydrodibenzo[b,f][1,4]diazocine-6,11-dione]",,,,,,,,,,"IC50 ([1]; 24 h of treatment): 132 ± 6 µM; IC50 ([1]; 48 h of treatment, N.A. = not active): 251 ± 5.1 µM; IC50 [5]: 93.7 to 323 µM; number of necrotic cells (HeLa cells): 15.3%; dead cell fraction: early apoptosis (EUFA30 cells; [6]): 9.0%; dead cell fraction: late apoptosis (EUFA30 cells; [7]): 1.8%; dead cell fraction: necrosis (EUFA30 cells; [8]): 15.6%; IC50 ([2]; U87, 24 h of treatment): 97.1 ± 13.2 µM; IC50 ([2]; U87, 48 h of treatment, N.A. = not active): 294 ± 22.4 µM; IC50 ([3]; EUFA30, 24 h of treatment): 144 ± 10.6 µM; IC50 ([3]; EUFA30, 48 h of treatment, N.A. = not active): 153 ± 4.1 µM; IC50 ([4]; BICR18, 24 h of treatment): 93.7 ± 5.2 µM; IC50 ([4]; BICR18, 48 h of treatment, N.A. = not active): 178 ± 3 µM"
"CN1C(=O)c2cscc2C(=O)Nc2ccccc21 [Compound 3i, 5-methyl-5,10-dihydrobenzo[b]thieno[3,4-f][1,4]diazocine-4,11-dione]",14.8,1.6,36.6,241 to 242 °C,29.4,1.5,24,2.8,,
"CN(C)CCN1C(=O)c2ccccc2C(=O)N(Cc2ccccc2)c2ccccc21 [Compound 3m, 5-benzyl-12-(2-(dimethylamino)ethyl)-5,12-dihydrodibenzo[b,f][1,4]diazocine-6,11-dione]",23.4,,36.8,154 to 155 °C,42.2,9.9,30.1,4.1,4.7,
"O=C1Nc2ccccc2N(Cc2ccccc2)C(=O)c2ccccc21 [Compound 3j, 5-benzyl-5,12-dihydrodibenzo[b,f][1,4]diazocine-6,11-dione]",34.3,3.3,33,205 to 206 °C,33.2,32.6,42.2,,6.1,IC50 [5]: > 300 µM
"CCOC(=O)c1cc2c(cc1C(=O)OCC)C(=O)Nc1ccccc1NC2=O [Compound 3k, diethyl 6,11-dioxo-5,6,11,12-tetrahydrodibenzo[b,f][1,4]diazocine-8,9-dicarboxylate]",28.2,,37.2,242 to 243 °C,36.7,,16.8,3.1,5.6,

# From PMC7356613, “Unsymmetrically-Substituted 5,12-dihydrodibenzo[b,f][1,4]diazocine-6,11-dione Scaffold—A Useful Tool for Bioactive Molecules Design” (Molecules, 2020)
